Values quoted from earlier work, collected in patent US8158770B2, “Content dependent inhibitors of cytidine deaminases and uses thereof” (University of Rochester, priority 2004, dated 2012).

What was measured:
[1] = by comparison to 5-aza-dC and ara-C
[2] = by comparison to 5-aza-dC and ara-C; remark: listed apart in the source

SMILES: O=c1ncccn1[C@@H]1O[C@H](CO)[C@@H](O)[C@H]1O [zebularine, 1-(beta-D-ribofuranosyl)-1,2-dihydropyrmidin-2-one]
- cytotoxicity [1]: considerably less cytotoxic
- chemically stable in aqueous solution, up to pH [2]: ≤ 12 pH
